Results as given in patent US9012166B2, “Method for assaying histone methylation enzyme activity” (Kyushu Institute of Technology, priority 2010, dated 2015).
Values belong to the compound of their own block, whether it stands above or below them.

What was measured:
Assay type in all cases: biochemical
G9a (GST-mG9a) = molecular target: T1, G9a (GST-mG9a) (Mus musculus, UniProt Q9Z148); experiment: Assay for measuring histone methyltransferase activity using peptidyl MCA, inhibitor evaluation with G9a; settings: Example 9; Ac-histone H3 (1-9)-MCA; AMC fluorescence λex 390 nm/λem 460 nm; FIG. 19; read-out: IC50 for G9a
T1 sequence (Q9Z148 1-1263): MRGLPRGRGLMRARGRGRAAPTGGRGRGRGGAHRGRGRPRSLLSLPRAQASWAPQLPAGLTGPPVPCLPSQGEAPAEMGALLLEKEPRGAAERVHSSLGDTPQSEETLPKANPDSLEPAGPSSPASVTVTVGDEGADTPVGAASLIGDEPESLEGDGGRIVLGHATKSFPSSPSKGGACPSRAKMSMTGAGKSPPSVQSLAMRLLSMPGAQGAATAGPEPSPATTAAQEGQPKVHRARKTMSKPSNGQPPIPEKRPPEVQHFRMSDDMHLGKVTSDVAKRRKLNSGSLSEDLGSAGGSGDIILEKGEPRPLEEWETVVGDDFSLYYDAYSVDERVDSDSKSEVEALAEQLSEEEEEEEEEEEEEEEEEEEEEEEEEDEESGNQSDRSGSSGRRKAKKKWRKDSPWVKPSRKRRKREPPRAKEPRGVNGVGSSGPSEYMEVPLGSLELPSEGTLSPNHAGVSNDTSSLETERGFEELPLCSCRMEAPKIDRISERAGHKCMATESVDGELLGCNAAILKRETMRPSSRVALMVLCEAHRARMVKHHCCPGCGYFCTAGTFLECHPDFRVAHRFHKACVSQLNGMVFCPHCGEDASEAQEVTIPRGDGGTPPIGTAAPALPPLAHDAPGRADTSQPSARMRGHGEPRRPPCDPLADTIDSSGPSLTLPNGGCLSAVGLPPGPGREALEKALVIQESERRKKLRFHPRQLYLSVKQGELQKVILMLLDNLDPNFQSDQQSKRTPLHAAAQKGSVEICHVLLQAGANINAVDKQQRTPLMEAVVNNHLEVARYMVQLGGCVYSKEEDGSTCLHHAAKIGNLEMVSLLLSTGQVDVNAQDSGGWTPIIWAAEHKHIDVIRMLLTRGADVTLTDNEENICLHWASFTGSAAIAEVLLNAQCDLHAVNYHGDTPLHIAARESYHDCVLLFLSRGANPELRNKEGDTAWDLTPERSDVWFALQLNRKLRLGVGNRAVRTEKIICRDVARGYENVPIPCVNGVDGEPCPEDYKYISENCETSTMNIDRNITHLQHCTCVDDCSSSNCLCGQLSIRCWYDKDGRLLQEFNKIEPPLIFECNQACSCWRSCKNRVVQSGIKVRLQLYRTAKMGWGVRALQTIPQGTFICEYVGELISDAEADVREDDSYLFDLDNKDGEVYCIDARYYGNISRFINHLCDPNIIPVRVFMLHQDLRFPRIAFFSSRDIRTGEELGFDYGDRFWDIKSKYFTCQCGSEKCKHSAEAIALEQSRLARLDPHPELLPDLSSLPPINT
Method: When G9a was adopted as a histone methyltransferase, the following method was used. 10 μL of 2×HMT buffer (100 mM Tris-HCl (pH 8.5), 20 mM MgCl2, 40 mM KCl, 20 mM 2-mercaptoethanol, 500 mM sucrose), 0.4 μL of a BSA solution (150 μg/mL), 2 μL of GST-mG9a (0, 0.5 μg/μL), 1 μL of gliotoxin (any of various concentrations) and 2.6 μL of distilled water were mixed and then incubated at room temperature for 1 hour. Then, 2 μL of SAM (10 mM) and 2 μL of a peptidyl MCA (Ac-histone H3 (1-9)-MCA) solution (0.6 mM) were added thereto, which was then incubated at 37° C. for 1 hour. Thereafter, 30 μL of a trypsin solution (20 mg/mL) was added thereto, followed by incubation at 37° C. for 15 minutes. Then, the fluorescence intensity of the solution was measured at an excitation wavelength (λex) of 390 nm and a fluorescence wavelength (λem) of 460 nm. The final concentration of GST-mG9a during the measurement of fluorescence intensity was 0.05 μg/μL. The results of the assay for measuring histone methyltransferase activity are shown in the middle panel of FIG. 18.
The rate of the inhibition of methylation by gliotoxin was calculated from the results in the left panel and the middle panel of FIG. 18. Specifically, the value (%) was calculated which was obtained by dividing “a value obtained by subtracting “the fluorescence intensity of AMC when peptidase was added but gliotoxin was not added” from “the fluorescence intensity of AMC when both peptidase and gliotoxin were added”” by “a value obtained by subtracting “the fluorescence intensity of AMC when peptidase was added but gliotoxin was not added” from “the fluorescence intensity of AMC when no peptidase or gliotoxin was added”” and multiplying the resultant value by 100. The rate (%) of the inhibition of methylation by gliotoxin is shown in the right panel of FIG. 18.
Specifically, the assay for measuring histone methyltransferase activity was carried out by the same method as the method using G9a […] in Example 8 except for using S-Adenosyl-L-homocysteine (SAH) in place of gliotoxin. SAH is a by-product of the methylation reaction and is known to inhibit histone methyltransferase in a negative feedback manner. […] The rate (%) of the inhibition of methylation by SAH was calculated from the results in the left panel of FIG. 19. The results are shown in the right panel of FIG. 19.
When G9a was adopted as a histone methyltransferase, the following method was used. […] Then, the fluorescence intensity of the solution was measured at an excitation wavelength (λex) of 330 nm and a fluorescence wavelength (λem) of 380 nm or at an excitation wavelength (λex) of 390 nm and a fluorescence wavelength (λem) of 460 nm. The final concentration of GST-mG9a during the measurement of fluorescence intensity was 0 μg/μL or 0.05 μg/μL.

lysyl endopeptidase [1] = molecular target: T2, lysyl endopeptidase (Achromobacter lyticus, UniProt P15636); experiment: LC/MS analysis of reaction between substrate compound and lysyl endopeptidase; settings: Example 3; 37° C., 15 minutes
T2 sequence (P15636 206-473 limits assumed, species assumed): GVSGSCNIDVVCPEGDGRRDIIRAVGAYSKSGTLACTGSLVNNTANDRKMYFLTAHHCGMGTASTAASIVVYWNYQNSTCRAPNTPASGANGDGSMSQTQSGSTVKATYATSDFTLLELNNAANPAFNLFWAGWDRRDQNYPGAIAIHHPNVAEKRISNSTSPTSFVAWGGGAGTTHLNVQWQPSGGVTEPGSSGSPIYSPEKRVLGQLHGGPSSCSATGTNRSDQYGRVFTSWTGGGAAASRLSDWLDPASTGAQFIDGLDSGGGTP
Method: (§1) Distilled water was added to 10 μL of 2×HMT buffer (100 mM Tris-HCl (pH 8.5), 20 mM MgCl2, 40 mM KCl, 20 mM 2-mercaptoethanol, 500 mM sucrose) and 1 μL of a BocLysMCA solution to adjust the total volume to 20 μL. To the resultant solution was added 30 μL of a peptidase solution (20 mg/mL trypsin or 20 mAU/mL lysyl endopeptidase), which was then mixed and incubated at 37° C. for 15 minutes. Then, the solution was applied to a liquid chromatograph mass spectrometer (LC/MS) for analysis. Analysis was performed by the same method as that for the above analysis except for using monomethylated BocLysMCA (i.e., “BocLys(Me)MCA”), dimethylated BocLysMCA (i.e., “BocLys(Me)2MCA”), or trimethylated BocLysMCA (i.e., “BocLys(Me)3MCA”) in place of BocLysMCA. Analysis was also carried out by the same method except for using, in place of the above-described peptidase solution, an equal volume of distilled water.

trypsin [2] = experiment: LC/MS analysis of reaction between substrate compound and trypsin; settings: Example 3; 37° C., 15 minutes
Method: as §1

lysyl endopeptidase [3] = molecular target: T2, lysyl endopeptidase; experiment: Mixing assay of substrate compound with peptidase (lysyl endopeptidase), AMC fluorescence; settings: 1,000 μM BocLys(Me)nMCA and lysyl endopeptidase; λex 390 nm, λem 460 nm
Method: (§2) Distilled water was added to 10 μL of 2×HMT buffer (100 mM Tris-HCl (pH 8.5), 20 mM MgCl2, 40 mM KCl, 20 mM 2-mercaptoethanol, 500 mM sucrose) and 1 μL of a BocLysMCA solution to adjust the total volume to 20 μL. To the resultant solution was added 30 μL of a peptidase solution (20 mg/mL trypsin or 20 mAU/mL lysyl endopeptidase), which was then mixed and incubated at 37° C. for 15 minutes. Then, the fluorescence intensity of the solution was measured at an excitation wavelength (λex) of 390 nm and a fluorescence wavelength (λem) of 460 nm. The wavelength is a wavelength for detecting AMC (7-amino-4-methylcoumarin) released by the cleavage of the amide bond between Lys and MCA of BocLysMCA. The fluorescence intensity of AMC was similarly measured by performing a mixing assay by the same method as the above method except for using monomethylated BocLysMCA (i.e., “BocLys(Me)MCA”), dimethylated BocLysMCA (i.e., “BocLys(Me)2MCA”), or trimethylated BocLysMCA (i.e., “BocLys(Me)3MCA”) in place of BocLysMCA.

trypsin [4] = experiment: Mixing assay of substrate compound with peptidase (trypsin), AMC fluorescence; settings: 1,000 μM BocLys(Me)nMCA and trypsin; λex 390 nm, λem 460 nm
Method: as §2

- IC50 (G9a (GST-mG9a)): 490 µM
SMILES: Nc1ncnc2c1ncn2[C@@H]1O[C@H](CSCC[C@H](N)C(=O)O)[C@@H](O)[C@H]1O [SAH, S-Adenosyl-L-homocysteine]

SMILES: Cc1cc(=O)oc2cc(NC(=O)[C@H](CCCCN(C)C)NC(=O)OC(C)(C)C)ccc12 [BocLys(Me)2MCA, dimethylated BocLysMCA]
- hydrolysis by lysyl endopeptidase (LC/MS peaks) (lysyl endopeptidase [1]): almost no occurrence of hydrolysis
- hydrolysis by trypsin (LC/MS peaks) (trypsin [2]): almost no occurrence of hydrolysis
- fluorescence intensity of AMC when the fluorescence intensity for BocLysMCA was set to 100% (lysyl endopeptidase [3]): 0.053%
- fluorescence intensity of AMC when the fluorescence intensity for BocLysMCA was set to 100% (trypsin [4]): 0.12%

SMILES: CNCCCC[C@H](NC(=O)OC(C)(C)C)C(=O)Nc1ccc2c(C)cc(=O)oc2c1 [BocLys(Me)MCA, monomethylated BocLysMCA]
- hydrolysis by lysyl endopeptidase (LC/MS peaks) (lysyl endopeptidase [1]): almost no occurrence of hydrolysis
- hydrolysis by trypsin (LC/MS peaks) (trypsin [2]): almost no occurrence of hydrolysis
- fluorescence intensity of AMC when the fluorescence intensity for BocLysMCA was set to 100% (lysyl endopeptidase [3]): 0.096%
- fluorescence intensity of AMC when the fluorescence intensity for BocLysMCA was set to 100% (trypsin [4]): 2.7%

SMILES: Cc1cc(=O)oc2cc(NC(=O)[C@H](CCCC[N+](C)(C)C)NC(=O)OC(C)(C)C)ccc12 [BocLys(Me)3MCA, trimethylated BocLysMCA]
- hydrolysis by lysyl endopeptidase (LC/MS peaks) (lysyl endopeptidase [1]): almost no occurrence of hydrolysis
- hydrolysis by trypsin (LC/MS peaks) (trypsin [2]): almost no occurrence of hydrolysis
- fluorescence intensity of AMC when the fluorescence intensity for BocLysMCA was set to 100% (lysyl endopeptidase [3]): 0.25%
- fluorescence intensity of AMC when the fluorescence intensity for BocLysMCA was set to 100% (trypsin [4]): 0.24%
